Legend:
[1] = target: Receptor tyrosine-protein kinase erbB-4 (Homo sapiens) (UniProt Q15303); assay: Residual activity of ERBB4 at 1 uM by microplate scintillation counting
[2] = target: Death-associated protein kinase 2 (Homo sapiens) (UniProt Q9UIK4); assay: Residual activity of DAPK2 at 0.1 uM by microplate scintillation counting
[3] = target: Hepatocyte growth factor receptor (Homo sapiens) (UniProt P08581); assay: Residual activity of MET at 0.1 uM by microplate scintillation counting
[4] = target: MAP/microtubule affinity-regulating kinase 3 (Homo sapiens) (UniProt P27448); assay: Residual activity of MARK3 at 1 uM by microplate scintillation counting
MAP/microtubule affinity-regulating kinase 3 (Homo sapiens), sequence (P27448 whole entry, looked up): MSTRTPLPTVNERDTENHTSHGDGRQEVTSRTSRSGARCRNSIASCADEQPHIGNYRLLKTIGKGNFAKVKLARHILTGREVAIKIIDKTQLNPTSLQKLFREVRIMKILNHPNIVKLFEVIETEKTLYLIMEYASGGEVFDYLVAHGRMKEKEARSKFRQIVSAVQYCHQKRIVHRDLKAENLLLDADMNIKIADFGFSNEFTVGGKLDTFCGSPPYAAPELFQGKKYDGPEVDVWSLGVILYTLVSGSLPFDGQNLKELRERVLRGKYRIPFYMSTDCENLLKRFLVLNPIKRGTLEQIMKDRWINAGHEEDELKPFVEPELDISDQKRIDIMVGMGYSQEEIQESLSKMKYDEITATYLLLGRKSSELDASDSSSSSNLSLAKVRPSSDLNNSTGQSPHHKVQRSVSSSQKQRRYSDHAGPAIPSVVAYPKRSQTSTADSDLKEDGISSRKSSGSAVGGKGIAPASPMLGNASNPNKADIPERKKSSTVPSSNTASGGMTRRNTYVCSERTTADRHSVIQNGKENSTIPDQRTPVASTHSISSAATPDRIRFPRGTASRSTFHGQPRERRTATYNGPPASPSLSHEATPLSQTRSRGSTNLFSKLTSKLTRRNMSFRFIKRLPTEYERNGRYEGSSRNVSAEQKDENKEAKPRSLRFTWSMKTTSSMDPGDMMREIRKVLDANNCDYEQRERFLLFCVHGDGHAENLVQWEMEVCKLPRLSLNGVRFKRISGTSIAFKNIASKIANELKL

[5] = target: T1, Tyrosine-protein kinase ZAP-70 (Homo sapiens) (UniProt P43403); assay: Residual activity of ZAP70 at 1 uM by microplate scintillation counting
T1 sequence (whole entry): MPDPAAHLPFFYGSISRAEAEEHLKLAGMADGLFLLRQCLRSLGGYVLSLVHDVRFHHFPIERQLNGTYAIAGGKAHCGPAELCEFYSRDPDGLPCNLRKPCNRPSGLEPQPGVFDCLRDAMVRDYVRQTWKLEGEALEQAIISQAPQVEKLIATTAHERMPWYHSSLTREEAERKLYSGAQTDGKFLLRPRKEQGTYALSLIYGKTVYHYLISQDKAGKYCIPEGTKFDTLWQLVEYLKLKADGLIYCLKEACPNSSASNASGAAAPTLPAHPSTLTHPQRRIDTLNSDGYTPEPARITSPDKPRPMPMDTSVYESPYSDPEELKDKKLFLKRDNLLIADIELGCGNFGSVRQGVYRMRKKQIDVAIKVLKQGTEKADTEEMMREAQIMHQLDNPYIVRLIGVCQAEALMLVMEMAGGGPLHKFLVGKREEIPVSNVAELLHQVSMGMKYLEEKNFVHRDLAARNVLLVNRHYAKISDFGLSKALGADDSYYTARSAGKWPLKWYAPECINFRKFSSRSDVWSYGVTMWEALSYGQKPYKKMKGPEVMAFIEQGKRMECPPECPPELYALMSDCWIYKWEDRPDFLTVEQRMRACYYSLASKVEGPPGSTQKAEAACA

[6] = target: T2, Ephrin type-A receptor 8 (Homo sapiens) (UniProt P29322); assay: Residual activity of EPHA8 at 10 uM by microplate scintillation counting
T2 sequence (whole entry): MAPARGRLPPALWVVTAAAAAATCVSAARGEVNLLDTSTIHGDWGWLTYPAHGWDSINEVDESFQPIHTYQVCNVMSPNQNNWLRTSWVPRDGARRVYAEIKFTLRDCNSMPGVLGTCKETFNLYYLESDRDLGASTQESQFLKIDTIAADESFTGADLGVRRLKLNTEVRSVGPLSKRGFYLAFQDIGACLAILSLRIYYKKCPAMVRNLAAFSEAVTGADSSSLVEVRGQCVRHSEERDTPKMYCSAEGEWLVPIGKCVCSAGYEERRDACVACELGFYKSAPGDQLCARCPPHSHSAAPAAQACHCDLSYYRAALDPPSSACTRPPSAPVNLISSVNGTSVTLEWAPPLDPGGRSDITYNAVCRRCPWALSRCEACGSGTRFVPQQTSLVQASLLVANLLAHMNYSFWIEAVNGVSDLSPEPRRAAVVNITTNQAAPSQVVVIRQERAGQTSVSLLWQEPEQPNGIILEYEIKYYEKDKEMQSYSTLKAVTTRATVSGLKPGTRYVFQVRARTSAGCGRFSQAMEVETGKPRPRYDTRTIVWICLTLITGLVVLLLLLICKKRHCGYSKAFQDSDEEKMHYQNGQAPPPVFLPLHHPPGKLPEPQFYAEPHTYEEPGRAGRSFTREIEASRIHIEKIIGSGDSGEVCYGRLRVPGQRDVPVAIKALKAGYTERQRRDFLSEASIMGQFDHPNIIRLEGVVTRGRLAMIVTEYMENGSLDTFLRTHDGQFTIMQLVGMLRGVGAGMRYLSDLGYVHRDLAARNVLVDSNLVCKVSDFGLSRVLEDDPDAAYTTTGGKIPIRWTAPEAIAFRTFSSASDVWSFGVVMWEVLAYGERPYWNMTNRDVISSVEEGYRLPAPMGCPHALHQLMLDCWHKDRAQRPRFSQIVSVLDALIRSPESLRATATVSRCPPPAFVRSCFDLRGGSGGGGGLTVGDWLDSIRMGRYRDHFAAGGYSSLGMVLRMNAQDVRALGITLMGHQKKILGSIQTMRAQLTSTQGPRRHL

[7] = target: Tyrosine-protein kinase ABL1 (Homo sapiens) (UniProt P00519); assay: Residual activity of wild type ABL1 at 1 uM by microplate scintillation counting
Tyrosine-protein kinase ABL1 (Homo sapiens), sequence (P00519 whole entry): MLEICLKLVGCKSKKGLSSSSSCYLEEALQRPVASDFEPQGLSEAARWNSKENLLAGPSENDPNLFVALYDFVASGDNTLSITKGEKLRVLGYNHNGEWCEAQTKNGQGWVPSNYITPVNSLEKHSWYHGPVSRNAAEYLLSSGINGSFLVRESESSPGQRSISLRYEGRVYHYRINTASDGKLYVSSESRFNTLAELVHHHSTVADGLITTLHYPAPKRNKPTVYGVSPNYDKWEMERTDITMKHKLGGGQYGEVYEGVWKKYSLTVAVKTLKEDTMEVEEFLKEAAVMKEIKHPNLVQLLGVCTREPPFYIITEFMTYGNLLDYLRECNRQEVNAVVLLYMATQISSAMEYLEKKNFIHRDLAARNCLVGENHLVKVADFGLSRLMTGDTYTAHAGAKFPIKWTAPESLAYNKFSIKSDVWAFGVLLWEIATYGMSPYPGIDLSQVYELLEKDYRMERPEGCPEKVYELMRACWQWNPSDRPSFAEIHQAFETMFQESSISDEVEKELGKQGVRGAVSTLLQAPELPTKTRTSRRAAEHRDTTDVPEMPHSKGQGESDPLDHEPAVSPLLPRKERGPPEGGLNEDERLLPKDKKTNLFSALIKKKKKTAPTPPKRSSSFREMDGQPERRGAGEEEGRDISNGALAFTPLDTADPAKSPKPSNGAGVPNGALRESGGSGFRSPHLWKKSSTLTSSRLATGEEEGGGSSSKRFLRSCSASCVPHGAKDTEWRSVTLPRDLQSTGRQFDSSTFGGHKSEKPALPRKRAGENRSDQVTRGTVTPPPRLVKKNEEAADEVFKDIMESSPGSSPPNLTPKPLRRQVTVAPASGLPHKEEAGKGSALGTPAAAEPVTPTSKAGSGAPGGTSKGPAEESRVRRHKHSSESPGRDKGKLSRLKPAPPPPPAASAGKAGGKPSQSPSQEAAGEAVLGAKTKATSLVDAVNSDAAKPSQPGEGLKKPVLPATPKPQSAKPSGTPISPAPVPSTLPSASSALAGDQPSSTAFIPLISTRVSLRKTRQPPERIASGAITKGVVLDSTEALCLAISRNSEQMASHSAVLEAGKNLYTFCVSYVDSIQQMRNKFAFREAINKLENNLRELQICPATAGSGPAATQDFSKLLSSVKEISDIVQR

[8] = target: T3, Serine/threonine-protein kinase Nek2 (Homo sapiens) (UniProt P51955); assay: Residual activity of NEK2 at 10 uM by microplate scintillation counting
T3 sequence (whole entry): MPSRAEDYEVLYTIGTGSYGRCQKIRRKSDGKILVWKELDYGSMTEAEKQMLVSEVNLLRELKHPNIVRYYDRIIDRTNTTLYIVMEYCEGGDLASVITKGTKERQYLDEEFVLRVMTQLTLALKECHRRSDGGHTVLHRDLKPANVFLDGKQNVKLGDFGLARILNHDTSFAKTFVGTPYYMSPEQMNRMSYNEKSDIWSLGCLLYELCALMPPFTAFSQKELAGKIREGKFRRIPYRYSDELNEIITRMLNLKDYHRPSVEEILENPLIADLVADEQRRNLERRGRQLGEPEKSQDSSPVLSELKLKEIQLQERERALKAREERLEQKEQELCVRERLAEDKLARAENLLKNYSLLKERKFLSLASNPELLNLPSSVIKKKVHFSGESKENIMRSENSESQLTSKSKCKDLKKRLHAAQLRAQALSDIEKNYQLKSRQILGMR

[9] = target: Activin receptor type-1-like (Homo sapiens) (UniProt P37023); assay: Residual activity of ACV-RL1 at 0.1 uM by microplate scintillation counting
Activin receptor type-1-like (Homo sapiens), sequence (P37023 whole entry): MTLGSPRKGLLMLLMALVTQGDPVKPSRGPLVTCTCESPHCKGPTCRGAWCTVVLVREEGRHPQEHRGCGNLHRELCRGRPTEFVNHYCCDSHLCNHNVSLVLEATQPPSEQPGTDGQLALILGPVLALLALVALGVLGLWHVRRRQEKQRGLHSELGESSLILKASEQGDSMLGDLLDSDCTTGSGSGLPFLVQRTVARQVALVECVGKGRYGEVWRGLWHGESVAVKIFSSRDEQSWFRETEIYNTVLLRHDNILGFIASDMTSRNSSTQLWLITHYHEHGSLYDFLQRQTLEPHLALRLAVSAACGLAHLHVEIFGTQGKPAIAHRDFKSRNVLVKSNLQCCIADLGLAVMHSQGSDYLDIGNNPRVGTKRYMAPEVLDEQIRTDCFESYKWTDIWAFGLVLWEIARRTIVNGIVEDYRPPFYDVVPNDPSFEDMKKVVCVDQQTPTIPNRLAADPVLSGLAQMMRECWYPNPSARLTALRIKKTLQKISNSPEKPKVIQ

[10] = target: Serine/threonine-protein kinase PAK 1 (Homo sapiens) (UniProt Q13153); assay: Residual activity of PAK1 at 0.1 uM by microplate scintillation counting
Serine/threonine-protein kinase PAK 1 (Homo sapiens), sequence (Q13153 whole entry): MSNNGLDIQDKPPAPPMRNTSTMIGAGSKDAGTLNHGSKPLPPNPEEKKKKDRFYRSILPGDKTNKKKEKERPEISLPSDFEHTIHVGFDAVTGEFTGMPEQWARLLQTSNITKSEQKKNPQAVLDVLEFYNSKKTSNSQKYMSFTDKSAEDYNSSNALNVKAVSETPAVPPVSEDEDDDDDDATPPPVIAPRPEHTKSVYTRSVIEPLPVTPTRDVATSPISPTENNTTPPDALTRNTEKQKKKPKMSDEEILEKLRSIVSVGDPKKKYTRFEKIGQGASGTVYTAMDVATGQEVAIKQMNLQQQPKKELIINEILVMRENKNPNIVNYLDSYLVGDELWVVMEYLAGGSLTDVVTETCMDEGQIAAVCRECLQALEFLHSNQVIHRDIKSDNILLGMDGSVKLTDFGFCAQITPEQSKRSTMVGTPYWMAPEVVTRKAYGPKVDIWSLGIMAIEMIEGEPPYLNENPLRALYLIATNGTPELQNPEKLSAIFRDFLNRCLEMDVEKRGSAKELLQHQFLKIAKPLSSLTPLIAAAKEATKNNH

[11] = target: Ribosomal protein S6 kinase alpha-2 (Homo sapiens) (UniProt Q15349); assay: Residual activity of RPS6KA2 at 0.1 uM by microplate scintillation counting
Ribosomal protein S6 kinase alpha-2 (Homo sapiens), sequence (Q15349 whole entry): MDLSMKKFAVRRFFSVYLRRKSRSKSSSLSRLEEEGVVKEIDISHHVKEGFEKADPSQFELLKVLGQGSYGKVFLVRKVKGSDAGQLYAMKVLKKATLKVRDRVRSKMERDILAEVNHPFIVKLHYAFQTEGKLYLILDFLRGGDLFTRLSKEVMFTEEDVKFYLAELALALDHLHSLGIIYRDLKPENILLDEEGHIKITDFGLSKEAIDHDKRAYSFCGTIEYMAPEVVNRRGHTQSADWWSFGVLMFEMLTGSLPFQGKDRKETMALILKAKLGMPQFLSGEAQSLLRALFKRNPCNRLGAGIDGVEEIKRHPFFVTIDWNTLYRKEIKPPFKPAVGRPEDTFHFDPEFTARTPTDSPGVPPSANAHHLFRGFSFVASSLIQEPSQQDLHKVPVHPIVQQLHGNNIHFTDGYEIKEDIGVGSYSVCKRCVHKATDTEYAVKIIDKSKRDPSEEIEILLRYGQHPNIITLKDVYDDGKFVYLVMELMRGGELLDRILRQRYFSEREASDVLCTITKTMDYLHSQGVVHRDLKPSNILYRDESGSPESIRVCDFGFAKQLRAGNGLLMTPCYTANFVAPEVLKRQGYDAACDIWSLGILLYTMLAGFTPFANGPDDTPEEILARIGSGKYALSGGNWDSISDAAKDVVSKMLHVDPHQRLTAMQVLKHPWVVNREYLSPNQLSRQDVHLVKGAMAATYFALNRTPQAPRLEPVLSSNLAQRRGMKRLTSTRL

Receptor tyrosine-protein kinase erbB-4 (Homo sapiens), sequence (Q15303 whole entry): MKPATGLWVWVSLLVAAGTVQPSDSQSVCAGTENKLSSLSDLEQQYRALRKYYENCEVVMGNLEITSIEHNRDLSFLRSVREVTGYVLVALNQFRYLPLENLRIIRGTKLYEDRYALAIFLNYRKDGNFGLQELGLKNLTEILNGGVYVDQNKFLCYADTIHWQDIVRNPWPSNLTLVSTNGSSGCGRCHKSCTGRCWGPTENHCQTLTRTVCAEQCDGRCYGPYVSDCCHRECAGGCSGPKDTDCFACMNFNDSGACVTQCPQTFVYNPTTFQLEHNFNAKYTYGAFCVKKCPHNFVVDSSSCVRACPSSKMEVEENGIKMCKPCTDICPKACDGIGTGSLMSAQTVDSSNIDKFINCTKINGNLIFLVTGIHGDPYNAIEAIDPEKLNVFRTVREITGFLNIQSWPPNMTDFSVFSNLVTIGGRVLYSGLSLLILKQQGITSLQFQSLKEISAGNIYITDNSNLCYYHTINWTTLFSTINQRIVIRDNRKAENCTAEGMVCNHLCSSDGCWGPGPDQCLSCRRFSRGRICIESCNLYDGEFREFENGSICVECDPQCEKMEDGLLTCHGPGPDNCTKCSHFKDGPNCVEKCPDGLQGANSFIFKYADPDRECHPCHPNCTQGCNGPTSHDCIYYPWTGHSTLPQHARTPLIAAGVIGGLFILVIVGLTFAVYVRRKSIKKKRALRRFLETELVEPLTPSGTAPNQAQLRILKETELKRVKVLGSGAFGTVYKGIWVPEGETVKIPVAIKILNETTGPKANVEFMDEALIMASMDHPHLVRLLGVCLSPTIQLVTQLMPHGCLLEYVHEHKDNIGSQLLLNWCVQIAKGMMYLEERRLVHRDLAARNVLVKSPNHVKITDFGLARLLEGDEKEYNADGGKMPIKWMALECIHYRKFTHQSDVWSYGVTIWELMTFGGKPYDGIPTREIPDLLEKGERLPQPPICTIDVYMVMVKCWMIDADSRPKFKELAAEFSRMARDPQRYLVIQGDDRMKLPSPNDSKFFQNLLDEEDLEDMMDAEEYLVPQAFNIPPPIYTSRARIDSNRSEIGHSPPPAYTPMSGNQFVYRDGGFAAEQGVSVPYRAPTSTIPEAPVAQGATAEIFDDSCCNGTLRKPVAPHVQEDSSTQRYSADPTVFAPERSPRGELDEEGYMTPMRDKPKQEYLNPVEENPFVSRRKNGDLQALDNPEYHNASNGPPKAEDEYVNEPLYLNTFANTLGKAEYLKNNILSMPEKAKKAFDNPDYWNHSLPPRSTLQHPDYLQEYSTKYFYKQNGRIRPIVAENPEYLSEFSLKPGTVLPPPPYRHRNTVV

residual activity [1] [%]	residual activity [3] [%]	residual activity [4] [%]	residual activity [5] [%]	residual activity [6] [%]	residual activity [7] [%]	residual activity [8] [%]	residual activity [9] [%]	residual activity [10] [%]	residual activity [11] [%]	Compound	residual activity [2] [%]
109	106	91	145	185	100	34	96	99	92	COc1cc2c(Oc3ccc(-c4nc5ccccc5s4)cc3)ncnc2cc1OCCCN1CCCC1	96
103	81	91	120	114	110	38	92	93	91	COc1cc2c(Oc3ccc(-c4nc5ccccc5s4)cc3F)ncnc2cc1OCCCN1CCN(C)CC1	85
99	83	93	116	273	99	54	91	97	90	COc1cc2c(Oc3ccc(-c4nc5ccccc5s4)cc3)ncnc2cc1OCCCN1CCN(C)CC1	81

Source: ChEMBL document CHEMBL1152560, “Substituted 2-arylbenzothiazoles as kinase inhibitors: hit-to-lead optimization” (Bioorg Med Chem, 2009)
